Reference: patent publication US20240051968A1, “METHODS FOR TREATING SPINOCEREBELLAR ATAXIA TYPE 3” (PTC Therapeutics, Inc., priority 2021, published 2024)

How the values were obtained:
[1] = tested on: Total ATXN3 (tATXN3) protein; experiment: Endogenous Total ATXN3 (tATXN3) Protein Assay (MSD immunoassay of cell lysates); assay type: cell-based; conditions: cells incubated with compound 48 h; 7-point concentration curve; MSD detection in cell lysate
Experimental: Endogenous Total ATXN3 (tATXN3) Protein Assay
Meso Scale Discovery (MSD) 96-well or 384-well plates were coated overnight at 4° C. with Ataxin 3 mouse monoclonal antibody (Invitrogen, MA3-082) at a concentration of 0.5 μg/mL in PBS (30 μL per well). Plates were then washed three times with 300 μL wash buffer (0.05% TWEEN®-20, polyethylene glycol sorbitan monolaurate, in PBS) and blocked (Meso Scale Diagnostics, R93BA-1; 5% BSA in PBS) for 2 h at room temperature with rotational shaking and then washed three times with wash buffer.
(§1) Test compounds were serially diluted 3.16-fold in 100% DMSO to generate a 7-point concentration curve. Aliquots of 0.5 μL of diluted compounds were transferred to a 96-well flat bottom plate by a liquid handler. An aliquot of 0.5 μL DMSO was also transferred to separate wells and used as controls. Duplicate samples were set up for each compound concentration and for the DMSO control.
Cells were thawed and incubated in cell culture media (DMEM, 10% FBS, and 1% antibiotic cocktail) for 72 h. Cells were trypsinized, counted, and re-suspended to a concentration of 100,000 cells/mL in cell culture media. A 100 μL aliquot of the cell suspensions were plated at 10,000 cells per well in the compound containing 96 well microtiter plate and incubated for in a cell culture incubator (37° C., 5% CO2, 100% relative humidity). After 48 h, the medium was removed and 50-100 μL of lysis buffer (Meso Scale Diagnostics, R60TX-2) containing 1× halt protease inhibitor cocktail of (Thermo Scientific, Halt™ Protease Inhibitor Cocktail, 78430) per well was added to cells to provide a “cell lysate”. The plate was placed on a shaker at 4° C. for 30 minutes, then stored at −80° C.
Cell lysate samples (25 μL) were transferred to the antibody-coated MSD plate and incubated overnight at 4° C. After removal of the lysates, the plate was washed three times with wash buffer, and 25 μL of Ataxin 3 recombinant rabbit monoclonal antibody (Invitrogen, #702788) secondary antibody (diluted to 0.25 μg/mL in 0.05% TWEEN®-20 in blocking buffer) was added to each well and incubated with shaking for 1-2 h at room temperature. Following incubation with the secondary antibody, the wells were rinsed with wash buffer and then […] Anti Rabbit Antibody Goat SULFO-TAG Labeled (Meso Scale Diagnostics, R32AB-1) detecting antibody (diluted to 0.25 μg/mL in 0.05% TWEEN®-20 in blocking buffer) was added to each well and incubated with shaking for 1 h at room temperature. After rinsing three times with wash buffer, 150 μL of Read Buffer T with surfactant (tris-based buffer containing tripropylamine, Meso Scale Diagnostics, R92TC-1) were added to each empty well, and the plate was imaged on a SI 6000 imager (MSD) according to manufacturers' instructions provided for 96- or 384-well plates.

ATXN3 pre-mRNA = experiment: RT-qPCR Assay to Quantify Exon 4 Skipping in ATXN3 pre-mRNA in Cells; assay type: cell-based; conditions: cells incubated with compound 24 h, 7-point concentration curve, GAPDH control
Experimental: as §1, with “RT-qPCR Assay to Quantify Exon 4 Skipping in ATXN3 pre-mRNA in Cells Test” for “Test”
Cells were thawed and incubated in cell culture media (DMEM, 10% FBS, and 1% antibiotic cocktail) for 72 h. Cells were trypsinized, counted, and re-suspended to a concentration of 100,000 cells/mL in cell culture media. A 100 μL aliquot of the cell suspensions were plated at 10,000 cells per well in the compound containing 96 well microtiter plate and incubated for in a cell culture incubator (37° C., 5% CO2, 100% relative humidity).
After 24 h, media was aspirated from the cells and 50 μL of the RCL2 lysis buffer (10 mM Tris-HCL pH 7.4, 150 mM NaCl, 0.33% IGEPAL® CA-630) was added to each well and incubated at room temperature for 1 min. Chilled nuclease free water (50 μL per well) was added and the plates were immediately transferred on ice. After 1 min on ice, plates were frozen at −80° C. overnight.
Preparation of RT-qPCR Reaction Mixture:
An aliquot of 2 μL/well of the cell lysates was transferred using the liquid handler to the Armadillo 384-Well PCR plate containing 8 μL/well of the RT-qPCR reaction mixture that was prepared as detailed above. The plates were then sealed with MicroAmp™ Optical Adhesive Film followed by spinning down for 1 min and placed in the CFX384 thermocycler (BioRad).
The RT-qPCR was carried out at the following temperatures for the indicated time: • Step 1: 48° C. (30 min) • Step 2: 95° C. (10 min) • Step 3: 95° C. (15 sec) • Step 4: 60° C. (1 min); then, repeated Steps 3 and 4 for a total of 40 cycles.
The percent exon 4 skipping was calculated for each dose of compound treatment using Equations 1 and 2.
Data were fit to a dose response curve and the IC50 was interpolated using XLfit® statistical and curve fitting package.
An IC50 value between >2.0 μM and ≤3.0 μM is indicated by one star (*). […] IC50 value between >0.5 μM and ≤1.0 μM is indicated by four stars (****). An IC50 value ≤0.5 μM is indicated by five stars (*****).

Row | SMILES | IC50 [1] | IC50 (ATXN3 pre-mRNA) | IC50, exon 4 skipping in ATXN3 pre-mRNA (ATXN3 pre-mRNA)
1 | N[C@@H](COC(F)(F)F)Cc1sc2c(NCc3nccs3)cc(Cl)nc2c1Br [Cpd 64, 2-[(2R)-2-amino-3-(trifluoromethoxy)propyl]-3-bromo-5-chloro-N-[(1,3-thiazol-2-yl)methyl]thieno[3,2-b]pyridin-7-amine] | 500 to 1000 nM | 500 to 1000 nM | 
2 | Cc1c(C[C@@H](N)CF)sc2c(NCc3cccs3)cc(Cl)nc12 [Cpd 91, 2-[(2R)-2-amino-3-fluoropropyl]-5-chloro-3-methyl-N-[(thiophen-2-yl)methyl]thieno[3,2-b]pyridin-7-amine] | 1000 to 1500 nM | 2000 to 3000 nM | 
3 | Cc1c(C[C@@H](N)CCF)sc2c(NCc3ccco3)cc(Cl)nc12 [Cpd 95, 2-[(2S)-2-amino-4-fluorobutyl]-5-chloro-N-[(furan-2-yl)methyl]-3-methylthieno[3,2-b]pyridin-7-amine] | ≤ 500 nM | ≤ 500 nM | 
4 | N[C@@H](CCF)Cc1sc2c(NCc3ccco3)cc(Cl)nc2c1Br [Cpd 97, 2-[(2S)-2-amino-4-fluorobutyl]-3-bromo-5-chloro-N-[(furan-2-yl)methyl]thieno[3,2-b]pyridin-7-amine] | ≤ 500 nM | ≤ 500 nM | 
5 | N#CC[C@H](N)Cc1sc2c(NCc3ccco3)cc(Cl)nc2c1Br [Cpd 103, (3S)-3-amino-4-(3-bromo-5-chloro-7-{[(furan-2-yl)methyl]amino}thieno[3,2-b]pyridin-2-yl)butanenitrile] | ≤ 500 nM | ≤ 500 nM | 
6 | CSC[C@H](N)Cc1sc2c(NCc3ccco3)cc(Cl)nc2c1C [Cpd 104, 2-[(2R)-2-amino-3-(methylsulfanyl)propyl]-5-chloro-N-[(furan-2-yl)methyl]-3-methylthieno[3,2-b]pyridin-7-amine] | ≤ 500 nM | ≤ 500 nM | 
7 | Cc1c(C[C@@H](N)CC#N)sc2c(NCc3cccs3)cc(Cl)nc12 [Cpd 105, (3S)-3-amino-4-(5-chloro-3-methyl-7-{[(thiophen-2-yl)methyl]amino}thieno[3,2-b]pyridin-2-yl)butanenitrile] | ≤ 500 nM | ≤ 500 nM | 
8 | N#CC[C@H](N)Cc1sc2c(NCc3cccs3)cc(Cl)nc2c1Cl [Cpd 106, (3S)-3-amino-4-(3,5-dichloro-7-{[(thiophen-2-yl)methyl]amino}thieno[3,2-b]pyridin-2-yl)butanenitrile] | ≤ 500 nM | ≤ 500 nM | 
9 | N[C@H](Cc1sc2c(NCc3cccs3)cc(Cl)nc2c1Br)CC(F)F [Cpd 107, 2-[(2S)-2-amino-4,4-difluorobutyl]-3-bromo-5-chloro-N-[(thiophen-2-yl)methyl]thieno[3,2-b]pyridin-7-amine] | 1000 to 1500 nM |  | inactive
10 | Cc1c(C[C@@H](N)CS(C)(=O)=O)sc2c(NCc3ccco3)cc(Cl)nc12 [Cpd 108, 2-[(2R)-2-amino-3-(methanesulfonyl)propyl]-5-chloro-N-[(furan-2-yl)methyl]-3-methylthieno[3,2-b]pyridin-7-amine] | ≤ 500 nM | ≤ 500 nM | 
11 | C[C@H](N)Cc1sc2c(NCc3ccco3)cc(Cl)nc2c1C#N [Cpd 109, 2-[(2S)-2-aminopropyl]-5-chloro-7-{[(furan-2-yl)methyl]amino}thieno[3,2-b]pyridine-3-carbonitrile] | ≤ 500 nM | ≤ 500 nM | 
12 | CS(=O)(=O)C[C@H](N)Cc1sc2c(NCc3ccco3)cc(Cl)nc2c1Cl [Cpd 113, 2-[(2R)-2-amino-3-(methanesulfonyl)propyl]-3,5-dichloro-N-[(furan-2-yl)methyl]thieno[3,2-b]pyridin-7-amine] | ≤ 500 nM | ≤ 500 nM | 
13 | CSC[C@H](N)Cc1sc2c(NCc3ccco3)cc(Cl)nc2c1Cl [Cpd 114, 2-[(2R)-2-amino-3-(methylsulfanyl)propyl]-3,5-dichloro-N-[(furan-2-yl)methyl]thieno[3,2-b]pyridin-7-amine] | ≤ 500 nM | ≤ 500 nM | 
14 | Cc1c(C[C@@H](N)C(=O)O)sc2c(NCc3ccco3)cc(Cl)nc12 [Cpd 115, 3-(5-chloro-7-{[(furan-2-yl)methyl]amino}-3-methylthieno[3,2-b]pyridin-2-yl)-D-alanine] | ≤ 500 nM | ≤ 500 nM | 

Next, values leading:

Row | IC50 [1] | IC50 (ATXN3 pre-mRNA) | IC50, exon 4 skipping in ATXN3 pre-mRNA (ATXN3 pre-mRNA) | SMILES
15 | ≤ 500 nM | ≤ 500 nM |  | CC[C@H](N)Cc1sc2c(NCc3cccs3)cc(Cl)nc2c1Br [Cpd 73, 2-[(2S)-2-aminobutyl]-3-bromo-5-chloro-N-[(thiophen-2-yl)methyl]thieno[3,2-b]pyridin-7-amine]
16 | ≤ 500 nM | ≤ 500 nM |  | N[C@@H](CCF)Cc1sc2c(NCc3cccs3)cc(Cl)nc2c1Br [Cpd 74, 2-[(2S)-2-amino-4-fluorobutyl]-3-bromo-5-chloro-N-[(thiophen-2-yl)methyl]thieno[3,2-b]pyridin-7-amine]
17 | ≤ 500 nM | ≤ 500 nM |  | N[C@@H](CF)Cc1sc2c(NCc3cccs3)cc(Cl)nc2c1Br [Cpd 76, 2-[(2R)-2-amino-3-fluoropropyl]-3-bromo-5-chloro-N-[(thiophen-2-yl)methyl]thieno[3,2-b]pyridin-7-amine]
18 | ≤ 500 nM | ≤ 500 nM |  | Cc1c(C[C@@H](N)CF)sc2c(NCc3ccco3)cc(Cl)nc12 [Cpd 81, 2-[(2R)-2-amino-3-fluoropropyl]-5-chloro-N-[(furan-2-yl)methyl]-3-methylthieno[3,2-b]pyridin-7-amine]
19 | ≤ 500 nM | ≤ 500 nM |  | CC[C@H](N)Cc1sc2c(NCc3cccs3)cc(Cl)nc2c1Cl [Cpd 83, 2-[(2S)-2-aminobutyl]-3,5-dichloro-N-[(thiophen-2-yl)methyl]thieno[3,2-b]pyridin-7-amine]
20 | ≤ 500 nM | ≤ 500 nM |  | N[C@@H](CF)Cc1sc2c(NCc3cccs3)cc(Cl)nc2c1Cl [Cpd 84, 2-[(2R)-2-amino-3-fluoropropyl]-3,5-dichloro-N-[(thiophen-2-yl)methyl]thieno[3,2-b]pyridin-7-amine]
21 | ≤ 500 nM | ≤ 500 nM |  | Cc1c(C[C@@H](N)CCF)sc2c(NCc3cccs3)cc(Cl)nc12 [Cpd 92, 2-[(2S)-2-amino-4-fluorobutyl]-5-chloro-3-methyl-N-[(thiophen-2-yl)methyl]thieno[3,2-b]pyridin-7-amine]
22 | ≤ 500 nM | ≤ 500 nM |  | N[C@@H](CCF)Cc1sc2c(NCc3ccco3)cc(Cl)nc2c1Cl [Cpd 93, 2-[(2S)-2-amino-4-fluorobutyl]-3,5-dichloro-N-[(furan-2-yl)methyl]thieno[3,2-b]pyridin-7-amine]
23 | ≤ 500 nM | ≤ 500 nM |  | N[C@@H](CF)Cc1sc2c(NCc3ccco3)cc(Cl)nc2c1Cl [Cpd 94, 2-[(2R)-2-amino-3-fluoropropyl]-3,5-dichloro-N-[(furan-2-yl)methyl]thieno[3,2-b]pyridin-7-amine]
